For 37 compounds, IC50 and IC90 results are on record in ChEMBL document CHEMBL4483862, “Open-source discovery of chemical leads for next-generation chemoprotective antimalarials” (2018).

The test has as its system Plasmodium berghei. In words: Luciferase/luciferin-expressing antifolate-resistant parasites were used to infect a culture of HepG2 cells that were pre-incubated with compounds. Infected hepatocytes emit light due to the luciferase reaction. Assay results are presented as the percent inhibition of light emission compared to control. […]. In kind it is functional. Particulars: sporozoite; for IC90: read-out: LUCIFERASE INFECTION ASSAY - IC90.

Where [1] appears, read: read-out: LUCIFERASE INFECTION ASSAY - IC50.

Each structure is given as a SMILES string. Some results are limits rather than exact numbers.

Broadly, the IC50 is the point on the concentration scale where inhibition reaches its midpoint. One may read the IC90 as the concentration at which the effect reaches the 90% level. Regarding `CCOc1ccc(/C=C/c2ccc3c(Cl)cc(Cl)c(O)c3n2)cc1OC`, the IC90 was greater than 10 µM. The IC50 (HEPG2TOX_HILL_SLOPE 1.14, HEPG2TOX_R_SQUARED 0.782, PBLUC_HILL_SLOPE 2.47, PBLUC_R_SQUARED 0.699, read-out: LUCIFERASE INFECTION ASSAY - IC50) is 4.52 µM.
In the case of `C=CCn1c(SCC(=O)Nc2nnc(-c3ccccc3)o2)nc2cc(Cl)ccc2c1=O`, the IC90 was greater than 10 µM. Further, under setting [1], the IC50 was greater than 10 µM.
For the compound `CC(=O)c1c(C)[nH]c(C(=O)Nc2nc3ccccc3[nH]2)c1C`, the IC90 is greater than 10 µM. Besides, the IC50 (FFLUC_HILL_SLOPE 0.837, FFLUC_R_SQUARED 0.9, PBLUC_HILL_SLOPE 0.352, PBLUC_R_SQUARED 0.709, read-out: LUCIFERASE INFECTION ASSAY - IC50) was 0.0695 µM.
In the case of `O=c1cc(O)c2c(=O)n3c4c(cccc4c2o1)CCC3`, the IC90 was greater than 12.3 µM. Under setting [1], the IC50 is greater than 12.3 µM.
On to `Cc1cc(C(=O)N/N=C/C(C)(C)C)nn1-c1ccc(C(C)C)cc1`, for which the IC90 was greater than 10.1 µM. For the same compound, the IC50 under setting [1] was greater than 10.1 µM.
Consider `Cn1c(Oc2cccc3c2OC(C)(C)C3)c(C#N)c(=O)n(C)c1=O`, for which the IC90 came to 0.188 µM. Further, the IC50 (PBLUC_HILL_SLOPE 0.981, PBLUC_R_SQUARED 0.556, read-out: LUCIFERASE INFECTION ASSAY - IC50) is 0.02 µM.
Regarding `Cc1ccccc1C(=O)/C=c1\s/c(=C\c2ccc(O)cc2)c(=O)n1C`, the IC90 is greater than 10 µM. In addition, the IC50 under setting [1] was greater than 10 µM.
In the case of `CC(=O)Nc1ccc(-c2cnc3ccc(Cc4ccc(F)cc4)nn23)cc1`, the IC90 is 1.41 µM. Moreover, the IC50 (PBLUC_HILL_SLOPE 11.9, PBLUC_R_SQUARED 0.515, read-out: LUCIFERASE INFECTION ASSAY - IC50) was 1.17 µM.
On to `Cc1nc(-c2ccccn2)nc(N(C)Cc2ccccc2)c1Cl`, for which the IC90 is 3.5 µM. In addition, where the note is “PBLUC_HILL_SLOPE 72.3, PBLUC_R_SQUARED 0.385, read-out: LUCIFERASE INFECTION ASSAY - IC50”, the IC50 stood at 3.4 µM.
Consider `CC1=NN(c2ccccc2)C(=O)/C(=C\NC(=O)c2cccc([N+](=O)[O-])c2)N1`, for which the IC90 was determined as 8.07 µM. Besides, the IC50 (HEPG2TOX_HILL_SLOPE 1.78, HEPG2TOX_R_SQUARED 0.224, PBLUC_HILL_SLOPE 3.78, PBLUC_R_SQUARED 0.384, read-out: LUCIFERASE INFECTION ASSAY - IC50) turned out to be 4.51 µM.
Consider `Cc1ccc(C(=O)CCC(=O)NCc2ccccc2)s1`, for which the IC90 is greater than 10 µM. For the same compound, the IC50 under setting [1] is greater than 10 µM.
`CCOC(=O)c1c(C)[nH]c(C(=O)C(C)N2CCN(c3ccccc3O)CC2)c1C` (centres undefined): the IC90 was greater than 10 µM. Where the note is “HEPG2TOX_HILL_SLOPE 6.06, HEPG2TOX_R_SQUARED 0.507, PBLUC_HILL_SLOPE 4.15, PBLUC_R_SQUARED 0.577, read-out: LUCIFERASE INFECTION ASSAY - IC50”, the half-inhibitory concentration (IC50) was determined as 7.31 µM.
`Cc1nc2ccc(N/N=C3\C=CC(=O)c4ncccc43)cc2s1`: the concentration for an effect of 90% (IC90) was determined as 4.05 µM. For the same compound, the IC50 (HEPG2TOX_HILL_SLOPE 2.99, HEPG2TOX_R_SQUARED 0.974, PBLUC_HILL_SLOPE 13.8, PBLUC_R_SQUARED 0.408, read-out: LUCIFERASE INFECTION ASSAY - IC50) turned out to be 3.46 µM.
With `O=C(Nc1nc2ccccc2s1)N1CC=C(c2c[nH]c3ncccc23)CC1`, the IC90 was greater than 10 µM. The IC50 (HEPG2TOX_HILL_SLOPE 3.51, HEPG2TOX_R_SQUARED 0.954, PBLUC_HILL_SLOPE 3.11, PBLUC_R_SQUARED 0.433, read-out: LUCIFERASE INFECTION ASSAY - IC50) came to 6.66 µM.
For `O=C(C[n+]1ccc(NC(=O)c2ccccc2)cc1)c1ccc(F)cc1`, the IC90 is greater than 7.95 µM. Moreover, the IC50 (PBLUC_HILL_SLOPE 9.15, PBLUC_R_SQUARED 0.444, read-out: LUCIFERASE INFECTION ASSAY - IC50) is 6.42 µM.
Regarding `CCN(CC)S(=O)(=O)c1ccc(Cl)c(NC(=O)CSc2nnc(-c3ccc(F)cc3)c3ccccc23)c1`, the IC90 was greater than 10 µM. Besides, the IC50 (FFLUC_HILL_SLOPE 11.3, FFLUC_R_SQUARED 0.167, read-out: LUCIFERASE INFECTION ASSAY - IC50) is greater than 10 µM.
As for `COc1cccc(C(c2c(-c3ccccc3)n(O)c3ccccc23)N2CCOCC2)c1` (centres undefined), the IC90 is greater than 10 µM. The IC50 (FFLUC_HILL_SLOPE 161, FFLUC_R_SQUARED 0.573, read-out: LUCIFERASE INFECTION ASSAY - IC50) was greater than 10 µM.
As to `Cn1c(N)c(C(=O)COC(=O)C2(c3ccc(Cl)cc3)CCCC2)c(=O)n(C)c1=O`, the IC90 was 6.91 µM. Moreover, the concentration for half-maximal inhibition (IC50) (PBLUC_HILL_SLOPE 2.17, PBLUC_R_SQUARED 0.685, read-out: LUCIFERASE INFECTION ASSAY - IC50) turned out to be 2.5 µM.
With `Clc1ccc(OC2OCCOC2Oc2ccc(Cl)cc2Cc2ccccc2)c(Cc2ccccc2)c1` (centres undefined), the IC90 was greater than 10 µM. The IC50 under setting [1] is greater than 10 µM.
Consider `Fc1ccc(-c2csc3ncnc(Sc4nnnn4-c4ccccc4)c23)cc1`, for which the IC90 stood at 3.53 µM. Also, the IC50 (HEPG2TOX_HILL_SLOPE 2.6, HEPG2TOX_R_SQUARED 0.978, PBLUC_HILL_SLOPE 15.6, PBLUC_R_SQUARED 0.498, read-out: LUCIFERASE INFECTION ASSAY - IC50) is 3.07 µM.
For the compound `CC(C)CCCC(C)NC(=O)CSCc1cccc(C(=O)O)c1` (centres undefined), the IC90 was greater than 10 µM. In addition, the IC50 under setting [1] is greater than 10 µM.
As for `Cc1ccc(-c2cnn3c(N4CCCC4)cc(C)nc23)cc1`, the IC90 worked out at 9.26 µM. Besides, for the setting “PBLUC_HILL_SLOPE 2.02, PBLUC_R_SQUARED 0.442, read-out: LUCIFERASE INFECTION ASSAY - IC50”, the IC50 was determined as 3.13 µM.
On to `Cc1ccc(-c2noc(-c3csc([C@@H]4C[C@H](O)[C@@H](CO)O4)n3)n2)cc1`, for which the IC90 was greater than 9.18 µM. The IC50 (PBLUC_HILL_SLOPE 1.21, PBLUC_R_SQUARED 0.165, read-out: LUCIFERASE INFECTION ASSAY - IC50) turned out to be 3.59 µM.
Turning to `CN1CCN(c2ccc(NC(=O)c3csc4c3CCCC4)cc2)CC1`, the IC90 came to 4.98 µM. Moreover, the IC50 (PBLUC_HILL_SLOPE 0.882, PBLUC_R_SQUARED 0.629, read-out: LUCIFERASE INFECTION ASSAY - IC50) came to 0.413 µM.
Take `COC(=O)c1sccc1Oc1ccc(C(F)(F)F)cc1NC(=O)Nc1c(Cl)cc(Cl)cc1Cl`: the IC90 was greater than 6.11 µM. In addition, under setting [1], the IC50 was greater than 6.11 µM.
`COc1ccc(-n2c(=O)c3ccccc3n3c(SCC(N)=O)nnc23)cc1`: the IC90 is greater than 10 µM. Under setting [1], the IC50 is greater than 10 µM.
As to `Cc1cccc(OCC(=O)Nc2nc(C)c(Cc3ccc4c(c3)OCO4)s2)c1`, the IC90 is greater than 10 µM. Further, the IC50 (PBLUC_HILL_SLOPE 0.768, PBLUC_R_SQUARED 0.0907, read-out: LUCIFERASE INFECTION ASSAY - IC50) was greater than 10 µM.
Consider `O=S(=O)(c1c(Cl)cc(Br)cc1Cl)N1CCN(C(=S)NC2CC3CCC2C3)CC1` (centres undefined), for which the IC90 is greater than 10 µM. Besides, the IC50 (PBLUC_HILL_SLOPE 16.2, PBLUC_R_SQUARED 0.114, read-out: LUCIFERASE INFECTION ASSAY - IC50) amounted to 8.93 µM.
With `C/C=C/c1ccc(OCC(=O)NCc2ccc(S(N)(=O)=O)cc2)c(OC)c1`, the IC90 is greater than 10 µM. Under setting [1], the IC50 is greater than 10 µM.
For `Cc1cccc(C(=O)Nc2nc3ccccn3c2C(=O)NC(C)C)c1`, the IC90 was greater than 9.81 µM. Further, the IC50 (HEPG2TOX_HILL_SLOPE 2.5, HEPG2TOX_R_SQUARED 0.601, PBLUC_HILL_SLOPE 2.39, PBLUC_R_SQUARED 0.0938, read-out: LUCIFERASE INFECTION ASSAY - IC50) was 6.28 µM.
On to `CC(C)(C)c1ccc(/C=C2\CCc3c2nc2ccccc2c3C(=O)OCC(=O)NNC(=O)c2ccccc2F)cc1`, for which the IC90 stood at 5.46 µM. Also, the IC50 (PBLUC_HILL_SLOPE 2.93, PBLUC_R_SQUARED 0.289, read-out: LUCIFERASE INFECTION ASSAY - IC50) came to 2.58 µM.
Regarding `CCOC(=O)c1ccc(Oc2nc3ccccc3nc2C(C#N)C(=O)OC)cc1` (centres undefined), the IC90 was determined as 7.6 µM. Also, where the note is “PBLUC_HILL_SLOPE 5.75, PBLUC_R_SQUARED 0.407, read-out: LUCIFERASE INFECTION ASSAY - IC50”, the IC50 worked out at 5.19 µM.
`CC1(C)CC(CCNCc2ccc(F)cc2)(Cc2ccccc2)CCO1` (centres undefined): the IC90 was 4.13 µM. Also, the IC50 (HEPG2TOX_HILL_SLOPE 551, HEPG2TOX_R_SQUARED 0.482, PBLUC_HILL_SLOPE 3.65, PBLUC_R_SQUARED 0.507, read-out: LUCIFERASE INFECTION ASSAY - IC50) amounted to 2.26 µM.
Turning to `O=C(Nc1ccnn1Cc1ccc(Cl)cc1Cl)c1cccc(NC(=O)c2cccs2)c1`, the IC90 is greater than 10 µM. Besides, the IC50 (HEPG2TOX_HILL_SLOPE 6.41, HEPG2TOX_R_SQUARED 0.384, PBLUC_HILL_SLOPE 10.4, PBLUC_R_SQUARED 0.292, read-out: LUCIFERASE INFECTION ASSAY - IC50) turned out to be 8.61 µM.
As for `Cc1cccc2sc(C(=O)NCc3cccc(NS(N)(=O)=O)c3)c(Cl)c12`, the IC90 was found to be 1.3 µM. The IC50 (PBLUC_HILL_SLOPE 16.9, PBLUC_R_SQUARED 0.264, read-out: LUCIFERASE INFECTION ASSAY - IC50) came out at 1.14 µM.
`O=C(NC1CC1)c1ccc(-c2cnc3c(Nc4cccc(OC(F)(F)C(F)F)c4)nccn23)cc1`: the IC90 is 2.49 µM. In addition, the IC50 (HEPG2TOX_HILL_SLOPE 8.49, HEPG2TOX_R_SQUARED 0.235, PBLUC_HILL_SLOPE 3.35, PBLUC_R_SQUARED 0.643, read-out: LUCIFERASE INFECTION ASSAY - IC50) was found to be 1.29 µM.
With `COc1ccc(CCN2C(=O)CS/C2=N\c2ccc(C)cc2C)cc1OC`, the IC90 is greater than 8.58 µM. Besides, for the setting “FFLUC_HILL_SLOPE 11.8, FFLUC_R_SQUARED 0.0733, HEPG2TOX_HILL_SLOPE 1.46, HEPG2TOX_R_SQUARED 0.879, PBLUC_HILL_SLOPE 2.1, PBLUC_R_SQUARED 0.331, read-out: LUCIFERASE INFECTION ASSAY - IC50”, the IC50 came out at 6.08 µM.
